For the data set the following is noted: Crystal; visual observation.

The structures appear in SMILES notation. Numbers after ± are expanded uncertainties.

As to `OC[C@@H](O)[C@H](O)[C@@H](O)CO` [xylitol], the Normal melting temperature was 94.50 ± 1 °C.
